Laboratory results taken from US7622497B2, “Derivatives of gambogic acid and analogs as activators of caspases and inducers of apoptosis” (Cytovia, Inc., priority 2003, dated 2009).

Tests used:
[1] = system: T-47D; assay: Caspase cascade activation (DEVD-R110 fluorogenic substrate) in T-47D cells; type: cell-based, Human; details: 24 h incubation; for EC50: Homo sapiens, T47D, read-out: Caspase potency EC50 T-47D; for Caspase activity (Ratio) T-47D: ratio of net RFU of compound to control, 0.16 to 10 μM final
Experimental: (§1) Human breast cancer cell lines T-47D and DLD were grown according to media component mixtures designated by American Type Culture Collection+10% FCS Invitrogen Corporation), in a 5% CO2-95% humidity incubator at 37° C. T-47D and DLD cells were maintained at a cell density between 30 and 80% confluency and for HL-60 at a cell density of 0.1 to 0.6×10^6 cells/ml. Cells were harvested at 600×g and resuspended at 0.65×10^6 cells/mL into appropriate media+10% FCS. An aliquot of 45 μl of cells was added to a well of a 96-well microtiter plate containing 5 μl of a 10% DMSO in RPMI-1640 media solution containing 1.6 to 100 μM of novel derivative of gambogic acid (0.16 to 10 μM final). An aliquot of 45 μl of cells was added to a well of a 96-well microtiter plate containing 5 μl of a 10%. DMSO in RPMI-1640 media solution without test compound as the control sample. The samples were mixed by agitation and then incubated at 37° C. for 24 h in a 5% CO2-95% humidity incubator. After incubation, the samples were removed from the incubator and 50 μl of a solution containing 20 μM of N-(Ac-DEVD)-N′-ethoxycarbonyl-R110 fluorogenic substrate SEQ ID NO:1 (Cytovia, Inc.; U.S. Pat. No. 6,335,429), 20% sucrose (Sigma), 20 mM DTT (Sigma), 200 mM NaCl (Sigma), 40 mM Na PIPES buffer pH 7.2 (Sigma), and 500 μg/ml lysolecithin (Calbiochem) was added. The samples were mixed by agitation and incubated at room temperature. Using a fluorescent plate reader (Model 1420 Wallac Instruments), an initial reading (T=0) was made approximately 1-2 min after addition of the substrate solution, employing excitation at 485 nm and emission at 530 nm, to determine the background fluorescence of the control sample. After approximately 3 h of incubation, the samples were read for fluorescence as above (T=3 h).
(§2) The Relative Fluorescence Unit values (RFU) were used to calculate the sample readings as follows: RFU(T=3h)−Control RFU(T=0)=Net RFU(T=3h)
(§3) The activity of caspase cascade activation was determined by the ratio of the net RFU value for derivatives of gambogic acid to that of control samples. The EC50 (nM) was determined by a sigmoidal dose-response calculation (Prism 2.0, GraphPad Software Inc.).

[2] = system: DLD; assay: Caspase cascade activation (DEVD-R110 fluorogenic substrate) in DLD cells; type: cell-based, Human; details: 24 h incubation; for EC50: Homo sapiens, read-out: Caspase potency EC50 DLD; for Caspase activity (Ratio) DLD: ratio of net RFU of compound to control, 0.16 to 10 μM final
Experimental: as §1, §2, §3

[3] = system: T47D; assay: Inhibition of cell proliferation (GI50), T47D; type: cell-based; details: Homo sapiens; T47D cells, 48 h, CellTiter 96 AQueous
Experimental: (§4) T-47D, DLD-1, MX-1, SW620, H1299, HEK293T and HEK293H cells were grown and harvested as in Example 11. An aliquot of 90 μL of cells (2.2×10^4 cells/mL) was added to a well of a 96-well microtiter plate containing 10 μl of a 10% DMSO in RPMI-1640 media solution containing 1 nM to 100 μM of novel derivative of gambogic acid (Example 2; 0.1 nM to 10 μM final). An aliquot of 90 μL of cells was added to a well of a 96-well microtiter plate containing 10 μL of a 10% DMSO in RPMI-1640 media solution without compound as the control sample for maximal cell proliferation (AMax). The samples were mixed by agitation and then incubated at 37° C. for 48 h in a 5% CO2-95% humidity incubator. After incubation, the samples were removed from the incubator and 20 μL of CellTiter 96 AQUEOUS One Solution Cell Proliferation™ reagent (Promega) was added. The samples were mixed by agitation and incubated at 37° C. for 2-4 h in a 5% CO2-95% humidity incubator. Using an absorbance plate reader (Model 1420 Wallac Instruments), an initial reading (T=0) was made approximately 1-2 min after addition of the solution, employing absorbance at 490 nm. This determines the possible background absorbance of the test compounds. No absorbance for the derivative of gambogic acid was found at 490 nm. After the 2-4 h incubation, the samples were read for absorbance as above (ATest). […]

[4] = system: DLD; assay: Inhibition of cell proliferation (GI50), DLD; type: cell-based; details: Homo sapiens; DLD cells, 48 h, CellTiter 96 AQueous
Experimental: as §4

[5] = system: MX-1; assay: Inhibition of cell proliferation (GI50), MX-1; type: cell-based; details: Homo sapiens, MX1; MX-1 cells, 48 h, CellTiter 96 AQueous
Experimental: as §4

[6] = system: SW620; assay: Inhibition of cell proliferation (GI50), SW620; type: cell-based; details: Homo sapiens, SW-620; SW620 cells, 48 h, CellTiter 96 AQueous
Experimental: as §4

[7] = system: H1299; assay: Inhibition of cell proliferation (GI50), H1299; type: cell-based; details: Homo sapiens, NCI-H1299; H1299 cells, 48 h, CellTiter 96 AQueous
Experimental: as §4

[8] = system: HEK293T; assay: Inhibition of cell proliferation (GI50), HEK293T; type: cell-based; details: Homo sapiens, HEK-293T; HEK293T cells, 48 h, CellTiter 96 AQueous
Experimental: as §4

[9] = system: HEK293H; assay: Inhibition of cell proliferation (GI50), HEK293H; type: cell-based; details: HEK293-H; HEK293H cells, 48 h, CellTiter 96 AQueous
Experimental: as §4

| SMILES | EC50 [1] [nM] | Caspase activity (Ratio) T-47D [1] | EC50 [2] [nM] | Caspase activity (Ratio) DLD [2] | GI50 [3] [nM] | GI50 [4] [nM] | GI50 [5] [nM] | GI50 [6] [nM] | GI50 [7] [nM] | GI50 [8] [nM] | GI50 [9] [nM] |
| --- | --- | --- | --- | --- | --- | --- | --- | --- | --- | --- | --- |
| CC(C)=CCCC1(C)C=Cc2c(O)c3c(c(CC=C(C)C)c2O1)OC12C(=CC4CC1C(C)(C)OC2(C/C=C(/C)C(=O)NCCCN1CCOCC1)C4=O)C3=O (centres unmarked) [Example 4, N-(3-Morpholin-4-yl-propyl)gambogamide] | 638 | 15 | 824 | 7.2 | – | – | – | – | – | – | – |
| CC(C)=CCCC1(C)C=Cc2c(O)c3c(c(CC=C(C)C)c2O1)OC12C(=CC4CC1C(C)(C)OC2(C/C=C(/C)C(=O)NCCCN1CCN(C)CC1)C4=O)C3=O (centres unmarked) [Example 3, N-[3-(4-Methyl-piperazin-1-yl)-propyl]gambogamide] | 1660 | 13 | 2120 | 5.8 | – | – | – | – | – | – | – |
| COC(=O)/C(C)=C\CC12OC(C)(C)C3CC(C1=O)C(N1CCOCC1)C1C(=O)c4c(O)c5c(c(CC=C(C)C)c4OC132)OC(C)(CCC=O)C=C5 (centres unmarked) [Example 7, Methyl 20-Ethylaldehyde-9,10-dihydro-10-morpholinyl-morellinate] | 1110 | 16 | 1360 | 5.8 | – | – | – | – | – | – | – |
| CC(C)=CCCC1(C)C=Cc2c(O)c3c(c(CC=C(C)C)c2O1)OC12C(=CC4CC1C(C)(C)OC2(C/C=C(/C)C(=O)OCCN1CCOCC1)C4=O)C3=O (centres unmarked) [Example 1, 2-(Morpholin-4-yl)-ethyl gambogate] | 303 | 18 | 350 | 7.6 | – | – | – | – | – | – | – |
| CC(C)=CCCC1(C)C=Cc2c(O)c3c(c(CC=C(C)C)c2O1)OC12C(=CC4CC1C(C)(C)OC2(C/C=C(/C)C(=O)OCCN(C)C)C4=O)C3=O (centres unmarked) [Example 2, 2-Dimethylaminoethyl gambogate] | 676 | 17 | 1040 | 7.2 | 187 | 173 | 101 | 180 | 184 | 440 | 192 |
| COC(=O)/C(C)=C\CC12OC(C)(C)C3CC(C=C4C(=O)c5c(O)c6c(c(CC=C(C)C)c5OC431)OC(C)(CCC(O)C(C)(C)O)C=C6)C2=O (centres unmarked) [Example 5, Methyl 37,38-Dihydroxy-gambogate] | 750 | 17 | 1290 | 7.2 | – | – | – | – | – | – | – |
| COC(=O)/C(C)=C\CC12OC(C)(C)C3CC(C1=O)C(N1CCOCC1)C1C(=O)c4c(O)c5c(c(CC=C(C)C)c4OC132)OC(C)(CCC(O)C(C)(C)O)C=C5 (centres unmarked) [Example 6, Methyl 37,38-Dihydroxy-9,10-dihydro-10-morpholinyl-gambogate] | 1160 | 17 | 2400 | 9.2 | – | – | – | – | – | – | – |
